According to EP2343287A1, “New 2-aminothiadiazole derivatives” (Almirall, S.A., priority 2009, dated 2011):

Target: S1P1 (Homo sapiens, UniProt P21453)
Test: 35S-GTPyS binding assay
Type: biochemical
Conditions: membranes; compounds at 0.1nM-10µM; 0.1nM 35S-GTPyS; 10µM S1P used as 100% maximum efficacy; 90 min at room temperature
Protocol: The effect of the compounds was measured using a 35S-GTPyS binding assay. Briefly, membranes were incubated in a buffer containing 20 mM HEPES pH 7.4, 100 mM NaCl, 10 mM MgCl2, 10µM GDP, 50µg/ml saponin and 0.2% fatty acid-free BSA at various concentrations (0.1nM-10µM) and 0.1nM 35S-GTPyS. 10µM S1P was used as 100% maximum efficacy. The assay was incubated for 90 min at room temperature with gentle mixing, and terminated by filtrating the reaction mixture through GF/C filter plates using the Manifold Filtration System. The filters were immediately washed with sodium phosphate pH 7.4 buffers. After drying the filter plate's scintillant liquid were added to each well and 35S-GTPyS binding was measured on a Trilux Scintillation Counter.

Sequence of S1P1 (P21453 whole entry, species assumed): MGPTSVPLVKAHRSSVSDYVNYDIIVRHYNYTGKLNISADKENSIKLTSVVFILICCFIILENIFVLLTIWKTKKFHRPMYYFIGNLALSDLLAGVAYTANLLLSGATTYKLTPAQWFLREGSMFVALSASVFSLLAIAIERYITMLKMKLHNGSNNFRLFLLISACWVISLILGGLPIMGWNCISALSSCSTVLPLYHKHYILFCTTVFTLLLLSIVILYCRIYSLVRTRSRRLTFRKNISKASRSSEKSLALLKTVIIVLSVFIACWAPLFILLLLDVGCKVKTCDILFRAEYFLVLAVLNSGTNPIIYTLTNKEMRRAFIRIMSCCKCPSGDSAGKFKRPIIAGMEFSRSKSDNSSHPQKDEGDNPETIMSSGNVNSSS

SMILES	EC50 [nM]
CCCCN(Cc1ccccc1Cl)c1nnc(-c2cc(C)c(OC)c(C)c2)s1 [Example 1, N-Butyl-N-(2-chlorobenzyl)-5-(4-methoxy-3,5-dimethylphenyl)-1,3,4-thiadiazol-2-amine]	39
CCCCN(Cc1c(Cl)cccc1Cl)c1nnc(-c2ccnc(C)c2)s1 [Example 16, N-Butyl-N-(2,6-dichlorobenzyl)-5-(2-methylpyridin-4-yl)-1,3,4-thiadiazol-2-amine]	18
CCCCN(Cc1ccccc1Cl)c1nnc(-c2cc(C)c(OC[C@H](O)CO)c(C)c2)s1 [Example 29, (2R)-3-(4-{5-[Butyl(2-chlorobenzyl)amino]-1,3,4-thiadiazol-2-yl}-2,6-dimethyl-phenoxy)propane-1,2-diol]	15
CCCCN(Cc1ccccc1Cl)c1nnc(-c2cc(C)c(OCC(O)CN)c(C)c2)s1 (stereo not shown) [Example 34, 1-Amino-3-(4-{5-[butyl(2-chlorobenzyl)amino]-1,3,4-thiadiazol-2-yl}-2,6-dimethyl-phenoxy)propan-2-ol]	32
CCCCN(Cc1ccccc1F)c1nnc(-c2cc(C)c(OCCN3CC(C(=O)O)C3)c(C)c2)s1 [Example 35, 1-[2-(4-{5-[Butyl(2-fluorobenzyl)amino]-1,3,4-thiadiazol-2-yl}-2,6-dimethyl-phenoxy)ethyl]azetidine-3-carboxylic acid]	33
CCCCN(Cc1ccccc1F)c1nnc(-c2cc(C)c(OCCNCCC(=O)O)c(C)c2)s1 [Example 36, N-[2-(4-{5-[Butyl(2-fluorobenzyl)amino]-1,3,4-thiadiazol-2-yl}-2,6-dimethyl-phenoxy)ethyl]-beta-alanine]	5
CCCCN(c1nnc(-c2ccc(CN3CC(C(=O)O)C3)cc2)s1)S(=O)(=O)Cc1ccccc1 [Example 43, 1-(4-{5-[(Benzylsulfonyl)(butyl)amino]-1,3,4-thiadiazol-2-yl}benzyl)azetidine-3-carboxylic acid]	123
